In patent US10765114B2, “4-amino-6-(pyridyl and 2-substitutedphenyl)-picolinates and 6-amino-2-(pyridyl and 2-substitutedphenyl)-pyrimidine-4-carboxylates and their use as herbicides” (Dow AgroSciences LLC, priority 2013, dated 2020):
Like-named read-outs stand apart in the source and are kept apart here.

Assays:
[1] = system: Key Broadleaf Weed and Crop Species; experiment: Post-Emergent Test II (Table 5); type: in vivo; settings: post-emergence, 336 h; for pest or weed control at 70 g/ha: application rate 70 (kg ai/ha; footnote: g ai/ha); for pest or weed control at 140 g/ha: application rate 140 (kg ai/ha; footnote: g ai/ha)
Summary of the method: (§1)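 Visual injury ratings (0 = no injury, 100 = complete kill) were taken 14 days after treatment relative to untreated plants. Seedlings at the first or second true leaf stage received an overhead spray at 187 L/ha, and solvent-blank sprayed plants served as controls.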

[2] = system: Key Grass and Sedge Weeds as well as Grass Crops; experiment: Post-Emergent Test II (Table 6); type: in vivo; settings: post-emergence, 336 h, 14 days after application; for pest or weed control at 70 g/ha: 70 g ai/ha; for pest or weed control at 140 g/ha: 140 g ai/ha
Summary of the method: as §1

[3] = Abutilon theophrasti, ABUTH: velvetleaf (Abutilon theophrasti), read-out: Visual Growth Reduction (%) 14 Days After Application ABUTH
[4] = Amaranthus retroflexus, AMARE: redroot pigweed (Amaranthus retroflexus), read-out: Visual Growth Reduction (%) 14 Days After Application AMARE
[5] = Brassica napus, BRSSS: oilseed rape, canola (Brassica napus), read-out: Visual Growth Reduction (%) 14 Days After Application BRSSS
[6] = Chenopodium album, CHEAL: lambsquarters (Chenopodium album), read-out: Visual Growth Reduction (%) 14 Days After Application CHEAL
[7] = Euphorbia heterophylla, EPHHL: wild poinsettia (Euphorbia heterophylla), read-out: Visual Growth Reduction (%) 14 Days After Application EPHHL
[8] = Helianthus annuus, HELAN: sunflower (Helianthus annuus), read-out: Visual Growth Reduction (%) 14 Days After Application HELAN
[9] = Viola tricolor, VIOTR: wild pansy (Viola tricolor), read-out: Visual Growth Reduction (%) 14 Days After Application VIOTR
[10] = CYPSS, read-out: Visual Growth Reduction (%) 14 Days After Application CYPSS
[11] = DIGSA: crabgrass (Digitaria sanguinalis), read-out: Visual Growth Reduction (%) 14 Days After Application DIGSA
[12] = ECHSS, read-out: Visual Growth Reduction (%) 14 Days After Application ECHSS
[13] = ORYSS (crop), read-out: Visual Growth Reduction (%) 14 Days After Application ORYSS
[14] = SETFA: giant foxtail (Setaria faberi), read-out: Visual Growth Reduction (%) 14 Days After Application SETFA
[15] = SORVU: grain sorghum (Sorghum vulgare), read-out: Visual Growth Reduction (%) 14 Days After Application SORVU
[16] = TRZSS (crop), read-out: Visual Growth Reduction (%) 14 Days After Application TRZSS
[17] = ZEAMX: maize, corn (Zea mays), read-out: Visual Growth Reduction (%) 14 Days After Application ZEAMX

SMILES | pest or weed control at 70 g/ha [1, 3] [%] | pest or weed control at 140 g/ha [1, 3] [%] | pest or weed control at 70 g/ha [1, 4] [%] | pest or weed control at 140 g/ha [1, 4] [%] | pest or weed control at 70 g/ha [1, 5] [%] | pest or weed control at 140 g/ha [1, 5] [%] | pest or weed control at 70 g/ha [1, 6] [%] | pest or weed control at 140 g/ha [1, 6] [%] | pest or weed control at 70 g/ha [1, 7] [%] | pest or weed control at 140 g/ha [1, 7] [%] | pest or weed control at 70 g/ha [1, 8] [%] | pest or weed control at 140 g/ha [1, 8] [%] | pest or weed control at 70 g/ha [1, 9] [%] | pest or weed control at 140 g/ha [1, 9] [%] | pest or weed control at 70 g/ha [2, 10] [%] | pest or weed control at 140 g/ha [2, 10] [%] | pest or weed control at 70 g/ha [2, 11] [%] | pest or weed control at 140 g/ha [2, 11] [%] | pest or weed control at 70 g/ha [2, 12] [%] | pest or weed control at 140 g/ha [2, 12] [%] | further results
COC(=O)c1nc(-c2ccc(Cl)nc2OC)cc(N)c1Cl [Compound 48] | 85 to 94 | 85 to 94 | 95 to 100 | 95 to 100 | 0 to 29 | 45 to 59 | 95 to 100 | 95 to 100 | 0 to 29 | 0 to 29 | 85 to 94 | 85 to 94 | 45 to 59 | 60 to 74 | 0 to 29 | 0 to 29 | 0 to 29 | 0 to 29 | 0 to 29 | 0 to 29 | pest or weed control at 70 g/ha [2, 13]: 0 to 29%; pest or weed control at 140 g/ha [2, 13]: 0 to 29%; pest or weed control at 70 g/ha [2, 14]: 0 to 29%; pest or weed control at 140 g/ha [2, 14]: 0 to 29%; pest or weed control at 70 g/ha [2, 15]: 0 to 29%; pest or weed control at 140 g/ha [2, 15]: 0 to 29%; pest or weed control at 70 g/ha [2, 16]: 0 to 29%; pest or weed control at 140 g/ha [2, 16]: 0 to 29%; pest or weed control at 70 g/ha [2, 17]: 0 to 29%; pest or weed control at 140 g/ha [2, 17]: 45 to 59%; melting point: 109 to 111 °C
COC(=O)c1nc(-c2ccc(C)nc2)c(F)c(N)c1Cl [Compound 90] | 85 to 94 | 95 to 100 | 95 to 100 | 95 to 100 | 60 to 74 | 75 to 84 | 95 to 100 | 95 to 100 | 85 to 94 | 95 to 100 | 95 to 100 | 95 to 100 | 0 to 29 | 45 to 59 | 0 to 29 | 0 to 29 | 0 to 29 | 45 to 59 | 75 to 84 | 75 to 84 | pest or weed control at 70 g/ha [2, 13]: 0 to 29%; pest or weed control at 140 g/ha [2, 13]: 0 to 29%; pest or weed control at 70 g/ha [2, 14]: 45 to 59%; pest or weed control at 140 g/ha [2, 14]: 60 to 74%; pest or weed control at 70 g/ha [2, 15]: 45 to 59%; pest or weed control at 140 g/ha [2, 15]: 45 to 59%; pest or weed control at 70 g/ha [2, 16]: 30 to 44%; pest or weed control at 140 g/ha [2, 16]: 30 to 44%; pest or weed control at 70 g/ha [2, 17]: 95 to 100%; pest or weed control at 140 g/ha [2, 17]: 95 to 100%; melting point: 191 °C
COC(=O)c1nc(-c2cccnc2)c(F)c(N)c1Cl [Compound 50] | 0 to 29 | 0 to 29 | 0 to 29 | 95 to 100 | 0 to 29 | 30 to 44 | 75 to 84 | 85 to 94 | 0 to 29 | 0 to 29 | 85 to 94 | 85 to 94 | 0 to 29 | 0 to 29 | 0 to 29 | 0 to 29 | 0 to 29 | 0 to 29 | 0 to 29 | 0 to 29 | pest or weed control at 70 g/ha [2, 13]: 0 to 29%; pest or weed control at 140 g/ha [2, 13]: 0 to 29%; pest or weed control at 140 g/ha [2, 14]: 60 to 74%; pest or weed control at 70 g/ha [2, 15]: 0 to 29%; pest or weed control at 140 g/ha [2, 15]: 0 to 29%; pest or weed control at 70 g/ha [2, 16]: 0 to 29%; pest or weed control at 140 g/ha [2, 16]: 0 to 29%; pest or weed control at 70 g/ha [2, 17]: 0 to 29%; pest or weed control at 140 g/ha [2, 17]: 0 to 29%; melting point: 163 to 164 °C
